Laboratory results taken from publication PMC10589655 (Proceedings of the National Academy of Sciences of the …, 2023).
Like-named read-outs stand apart in the source and are kept apart here.

Tests used:
R5 = molecular target: T1, R5 (Williamwhitmania taraxaci, UniProt A0A1G6J2J7); assay: ITC; assay type: binding
T1 sequence (A0A1G6J2J7 34-316 limits assumed): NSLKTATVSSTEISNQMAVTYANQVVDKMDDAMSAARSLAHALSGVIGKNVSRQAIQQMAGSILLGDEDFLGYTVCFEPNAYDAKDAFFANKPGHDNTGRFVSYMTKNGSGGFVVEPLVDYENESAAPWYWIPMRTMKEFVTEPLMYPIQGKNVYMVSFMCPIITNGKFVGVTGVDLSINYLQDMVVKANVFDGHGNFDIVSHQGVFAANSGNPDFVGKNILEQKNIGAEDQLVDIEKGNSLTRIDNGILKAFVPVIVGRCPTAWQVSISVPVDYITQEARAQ

R8 = molecular target: T2, R8 (Azospirillum baldaniorum, UniProt A0A9P1JTZ6); assay: ITC; details: one binding site model
T2 sequence (A0A9P1JTZ6 19-310): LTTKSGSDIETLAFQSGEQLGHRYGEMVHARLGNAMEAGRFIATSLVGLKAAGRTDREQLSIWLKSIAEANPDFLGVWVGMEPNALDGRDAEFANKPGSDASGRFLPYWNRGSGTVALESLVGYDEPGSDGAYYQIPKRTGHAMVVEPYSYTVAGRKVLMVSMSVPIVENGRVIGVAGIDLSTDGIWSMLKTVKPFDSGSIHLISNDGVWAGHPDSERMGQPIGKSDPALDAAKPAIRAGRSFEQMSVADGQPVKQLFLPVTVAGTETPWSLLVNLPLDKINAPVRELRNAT

R7 = molecular target: T3, R7 (Peptoclostridium litorale, UniProt A0A069RI07); assay: ITC; assay type: binding
T3 sequence (A0A069RI07 38-318 limits assumed): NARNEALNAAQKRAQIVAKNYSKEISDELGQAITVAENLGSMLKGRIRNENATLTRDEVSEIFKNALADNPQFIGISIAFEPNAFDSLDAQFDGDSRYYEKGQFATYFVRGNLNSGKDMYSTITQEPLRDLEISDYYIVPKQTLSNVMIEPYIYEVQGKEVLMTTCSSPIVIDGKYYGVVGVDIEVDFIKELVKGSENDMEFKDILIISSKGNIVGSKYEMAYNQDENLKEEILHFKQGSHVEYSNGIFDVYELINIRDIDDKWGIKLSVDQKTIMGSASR

R1 = molecular target: T4, R1 (Methanosarcina mazei, UniProt Q8PSW1); assay: ITC; assay type: binding
T4 sequence (Q8PSW1 32-312): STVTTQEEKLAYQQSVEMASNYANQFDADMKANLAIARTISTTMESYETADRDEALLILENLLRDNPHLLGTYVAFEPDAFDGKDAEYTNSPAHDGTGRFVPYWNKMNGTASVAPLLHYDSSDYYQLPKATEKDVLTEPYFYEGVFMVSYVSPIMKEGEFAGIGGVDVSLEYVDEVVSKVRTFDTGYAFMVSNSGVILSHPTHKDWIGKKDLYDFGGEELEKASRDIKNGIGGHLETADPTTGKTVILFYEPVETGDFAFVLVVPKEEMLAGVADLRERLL

R3 = assay: ITC; set-up: species or system Desulfovibrio inopinatus; details: read-out: KD (uM) / Polyamine / Ethylenediamine; one binding site model
PacA-LBD = PacA-LBD (Pectobacterium atrosepticum, UniProt Q6D515); assay: biochemical
R6 = R6 (Oleiharenicola lentus, UniProt A0A4Q1C8G9); assay: biochemical
Sequence of R6 (A0A4Q1C8G9 35-324 limits assumed): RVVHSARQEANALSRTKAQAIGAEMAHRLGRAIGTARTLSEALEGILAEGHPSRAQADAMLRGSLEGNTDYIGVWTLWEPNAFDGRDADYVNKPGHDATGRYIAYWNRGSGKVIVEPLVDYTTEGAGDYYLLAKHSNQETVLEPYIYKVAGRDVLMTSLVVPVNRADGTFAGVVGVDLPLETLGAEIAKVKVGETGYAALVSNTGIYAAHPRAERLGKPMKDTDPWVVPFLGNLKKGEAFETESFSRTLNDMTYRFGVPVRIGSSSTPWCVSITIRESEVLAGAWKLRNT

Sequence of PacA-LBD (Q6D515 1-271): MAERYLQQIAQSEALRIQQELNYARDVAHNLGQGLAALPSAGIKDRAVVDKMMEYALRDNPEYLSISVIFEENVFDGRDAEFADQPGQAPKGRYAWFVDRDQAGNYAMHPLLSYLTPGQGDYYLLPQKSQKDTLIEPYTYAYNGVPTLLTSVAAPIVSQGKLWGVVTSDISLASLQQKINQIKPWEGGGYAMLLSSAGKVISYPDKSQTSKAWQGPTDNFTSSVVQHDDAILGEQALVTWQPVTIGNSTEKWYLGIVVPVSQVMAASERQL

| Structure (SMILES) | Kd (R5) | Kd (R7) | Kd (R1) | further results |
| --- | --- | --- | --- | --- |
| C[N+](C)(C)CCO [Choline] | 3.6 ± 0.1 µM |  |  | Kd (R8; read-out: KD (uM) / Quaternary amines / Choline): 183 ± 4 µM |
| CNC [Dimethylamine] |  | 5.3 ± 0.4 µM | 0.53 ± 0.02 µM | Kd (R8; read-out: KD (uM) / Methyl-/ethyl-/ethanol amines^* / Dimethylamine): 5.8 ± 1 µM |
| NCCN [Ethylenediamine] |  | 12.3 ± 1 µM |  | Kd (R3): 29.6 ± 3 µM |
| CN [Methylamine] |  | 16.6 ± 2 µM | 35.1 ± 3 µM | Kd (R8; read-out: KD (uM) / Methyl-/ethyl-/ethanol amines^* / Methylamine): 25.1 ± 3 µM |
| CN(C)C [Trimethylamine] | 1.2 ± 0.1 µM |  | 10 ± 0.4 µM | Kd (PacA-LBD): 113 ± 6 µM; Kd (R6): 151 ± 4 µM; Kd (R8; read-out: KD (uM) / Methyl-/ethyl-/ethanol amines^* / Trimethylamine): 24 ± 4 µM |
